Experimental data as given in ChEMBL document CHEMBL1124095, “Resolution of the nonsteroidal antiandrogen 4'-cyano-3-[(4-fluorophenyl)sulfonyl]-2-hydroxy-2-methyl-3'- (trifluoromethyl)-propionanilide and the determination of the absolute configuration of the active enantiomer” (1988).

Species on record: Rattus norvegicus
Test: Antiandrogen activity in male rats
Type: functional

`CC(O)(CS(=O)(=O)c1ccc(F)cc1)C(=O)Nc1ccc(C#N)c(C(F)(F)F)c1` (stereo unspecified) [BICALUTAMIDE] showed an ED50 of 0.5 mg/kg.

With `C[C@](O)(CSc1ccc(F)cc1)C(=O)Nc1ccc(C#N)c(C(F)(F)F)c1` the ED50 was 0.5 mg/kg.

In the case of `C[C@](O)(CS(=O)(=O)c1ccc(F)cc1)C(=O)Nc1ccc(C#N)c(C(F)(F)F)c1` [(R)-BICALUTAMIDE], the ED50 is reported as 0.5 mg/kg.

`C[C@@](O)(CSc1ccc(F)cc1)C(=O)Nc1ccc(C#N)c(C(F)(F)F)c1` gave an ED50 of 30 mg/kg.

Work on `CC(O)(CSc1ccc(F)cc1)C(=O)Nc1ccc(C#N)c(C(F)(F)F)c1` (stereo unspecified) yielded an ED50 of 0.5 mg/kg.

`C[C@@](O)(CS(=O)(=O)c1ccc(F)cc1)C(=O)Nc1ccc(C#N)c(C(F)(F)F)c1` [(S)-BICALUTAMIDE] showed an ED50 of 30 mg/kg.
